Data: PMC9124651, “High-performance thin-layer chromatography in combination with an acetylcholinesterase-inhibition bioassay with pre-oxidation of organothiophosphates to determine neurotoxic effects in storm, waste, and surface water” (Analytical and Bioanalytical Chemistry, 2022)
In brackets after ≈: the same amount, converted by molar mass.

Tests used:
[1] = biological target: T1, AChE from electric eel (Electrophorus electricus) (Electrophorus electricus, UniProt O42275); experiment: HPTLC-(Ox)-AChE-I assay, immersion method (plates immersed in AChE solution); format: biochemical; conditions: without oxidation
T1 construct: purchased Sigma-Aldrich GmbH (Steinheim, Germany)
Experimental: (§1) LiChrospher 10 × 20 cm HPTLC Silica gel 60 F254s plates (Merck, Darmstadt, Germany) with a layer thickness of 170–190 µm and spherical silica particles with a size of 7 µm were used. The HPTLC plates were immersed twice in 2-propanol for 20 min, each time followed by a drying step at room temperature for 20 min. The plates then were pre-developed with methanol, dried for 20 min at room temperature, heated at 105 °C for 20 min, and stored in a desiccator for further use. The automatic TLC Sampler 4 (ATS 4, CAMAG AG, Muttenz, Switzerland) was used for sample application. The desired sample volumes were sprayed as 6-mm-wide bands onto the HPTLC plates with an application speed of 300 nL/s. The distances of the exterior bands from the edges of the plates were 15 mm. The distance from the bottom edge was 8 mm for all bands. Methanol was used as rinsing solvent. The following further application parameters were used: filling speed 15 µL/s, pre-dosage volume 200 nL, retraction volume 200 nL, rinsing vacuum time 4 s, filling vacuum time 0 s, rinsing cycles 2, and filling cycles 1. The development of the HPTLC plates was realized by the Automated Multiple Development 2 (AMD 2, CAMAG, Muttenz, Switzerland). The OTPs, their oxons, and environmental samples were separated with an eluent mixture of cyclohexane, dichloromethane, and acetone in different proportions and with increasing migration distances (Fig. S2). After each development step, a drying step of 3 min under vacuum followed. The final migration distance was 80 mm and the whole procedure took approximately 45 min. In addition, a simpler development process was used containing only the last step of the previous described method.
(§2) After chromatographic development, 10 mL of freshly prepared NBS (100 µg/mL) was sprayed onto the HPTLC plates with a glass reagent sprayer, followed by a 5-min incubation at room temperature. The following AChE-I assay was performed in parts according to Mendoza et al., Stütz et al., and Weins and Jork. AChE was buffered in TRIS/HCl at a pH of 7.8 (2.5 U/mL). The AChE solution was either sprayed onto the HPTLC plates with a glass reagent sprayer until the plates were evenly moist (approx. 10 mL) or the plates were immersed in the AChE solution using the Chromatogram Immersion Device 3 (CID 3, CAMAG, Muttenz, Switzerland). The immersion volume, speed, time, and depth were approx. 200 mL, 2.5 cm/s, 2 s, and approx. 85 mm, respectively. Afterward, the plates were placed separately in closed plastic boxes, which contained paper towels moistened with water to gain a saturated atmosphere. An incubation at 37 °C for 5 min followed. The substrate indoxyl acetate was freshly prepared in methanol at a concentration of 20 mg/mL and 5 mL was sprayed onto the HPTLC plates with a glass reagent sprayer. During 45-min incubation time at room temperature, AChE cleaves the substrate into indoxyl and acetate. The indoxyl reacts with oxygen to the blue indigo dye. When AChE was inhibited, no indigo was produced and the spot stayed white. The TLC Scanner 3 (CAMAG, Muttenz, Switzerland) was used to scan each track on the plates at 670 nm using the fluorescence mode without optical filter. The CAMAG-embedded software Wincats (Vers. 1.4.9) was used to provide chromatograms of each track and to evaluate inhibition zones.
Several amounts of an OTP mix and an oxon mix were applied on HPTLC plates (Tab. S2) and tested as described in the “Combination of HPTLC and AChE-inhibition assay” section. Three plates were used for each dilution series. The application volume was 10 µL for investigating OTPs with following oxidation and 100 µL for testing OTPs without following oxidation. The application volume for the oxons was 10 µL. They were tested without oxidation step also in triplicates. The peak heights were used for evaluation. Only peaks that have a signal-to-noise ratio ≥ 3 were considered in the evaluation. The height next to the respective peak defines the noise. […]

[2] = biological target: T1, AChE from electric eel (Electrophorus electricus); experiment: Recovery of AChE-I effect peak area in spiked water samples after SPE and HPTLC-Ox-AChE-I (spray); conditions: for Recovery of the effect peak area related to positive control (100%): spiked 100 ng OTP, SPE, 10 ng/spot, NBS oxidation, spray, ± SD, n = 4; for AChE-I effect recoveries in comparison to the positive control, range over samples: samples from stormwater retention basin and receiving stream, after SPE and HPTLC-Ox-AChE-I
Experimental: The samples were enriched by SPE within 24 h after sampling. Moreover, the field blank and water for a SPE blank were enriched in the same way. For additional matrix investigations, 1 mL malathion, parathion, and chlorpyrifos (100 ng/mL in methanol) were spiked into native samples taken in August 2020 and a water control before being loaded on the SPE cartridges. The cartridges (150 mg, Oasis HLB 6 cc, Waters GmbH, Eschborn, Germany) were conditioned with methanol (2 × 5 mL) and equilibrated with water (2 × 5 mL), before being loaded with 1000 ± 5 mL sample (the exact volume was determined by weighting) through a polytetrafluoroethylene tube. After drying the cartridges under vacuum, they were stored at − 18 °C until further usage. The cartridges were eluted with methanol (5 × 5 mL) that was evaporated afterward at 60 °C under a gentle nitrogen gas stream. The dried extracts were redissolved in 1 mL methanol to achieve a nominal 1000-fold enrichment.
The extracts, spiked samples, positive controls (PC: mix of malathion, parathion, and chlorpyrifos), and blanks were tested with the HPTLC-Ox-AChE-I method as described in the “Combination of HPTLC and AChE-inhibition assay” section. Each sample was tested in duplicates on two HPTLC plates (n = 4). The application volume was 100 µL resulting in a PC of 2000 ng/spot. The resulting amounts for the matrix investigation were 1000 and 10 ng/spot for the PCs and 10 ng/spot for the spiked samples. The matrix investigation was performed with and without the oxidation step. Excel was used to relate the peak areas of the spiked samples to the peak areas of the PCs (10 ng/spot). Differences between both approaches (oxidation and no oxidation) were shown by comparing the results of the spiked samples and PCs.

[3] = biological target: T1, AChE from electric eel (Electrophorus electricus); experiment: HPTLC-(Ox)-AChE-I assay, spray method (AChE sprayed onto plates); format: biochemical
Experimental: as §1
as §2, with “The” for “After chromatographic development, 10 mL of freshly prepared NBS (100 µg/mL) was sprayed onto the HPTLC plates with a glass reagent sprayer, followed by a 5-min incubation at room temperature. The”
Several amounts of an OTP mix and an oxon mix were applied on HPTLC plates (Tab. S2) and tested as described in the “Combination of HPTLC and AChE-inhibition assay” section. Three plates were used for each dilution series. The application volume was 10 µL for investigating OTPs with following oxidation and 100 µL for testing OTPs without following oxidation. The application volume for the oxons was 10 µL. They were tested without oxidation step also in triplicates. The peak heights were used for evaluation. Only peaks that have a signal-to-noise ratio ≥ 3 were considered in the evaluation. The height next to the respective peak defines the noise.

[4] = biological target: T1, AChE from electric eel (Electrophorus electricus); experiment: AChE-inhibition microtiter assay (Ellman, 96-well, with or without NBS oxidation); format: biochemical; conditions: no oxidation, 4-PL fit, n = 4
Experimental: Stock solutions (1 mg/mL) of NBS and ascorbic acid were each freshly prepared before the test and then diluted to 10 µg/mL and 100 µg/mL, respectively. The assay was performed with modifications according to Ellman’s method. OTPs, oxons, water, and methanol blanks (15 µL) were each mixed with 15 µL of NBS (10 µg/mL) in a 96-well plate. After an incubation at room temperature for 5 min, the reaction was stopped by adding 15 µL ascorbic acid (100 µg/mL). For the test setup without oxidation, OTPs, oxons, water, and methanol blanks (15 µL) were mixed with 30 µL water per well. Subsequently, 200 µL of a DTNB solution (0.15 mM), buffered in TRIS/HCl at a pH of 7.4, was added to each well of both test setups. Then, 20 µL of an AChE solution (0.5 U/mL), also buffered in TRIS/HCl at a pH of 7.4, was added. An incubation at 30 °C for 30 min without shaking followed. An ATCL solution (0.8 mM) was freshly prepared with water and 30 µL per well was added after incubation. During another incubation at room temperature for 30 min, ATCL was cleaved by AChE into thiocholine and acetic acid. Thiocholine reacts with DTNB to 2-nitro-5-thiobenzoate. The absorbance of the yellow-colored anion was photometrically measured at 405 nm (Sunrise Remote, Tecan Group AG, Männedorf, Schweiz).
Dilution series with eight concentrations of the three OTPs and related oxons (Tab. S1) were freshly prepared from stock solutions (1–10 mg/mL) in methanol. The OTPs and oxons were tested in duplicates with and without prior oxidation in two measurements as described in the “AChE-inhibition microtiter assay” section. Eight water and eight methanol blanks were tested per test setup (oxidation and no oxidation). Of these, two were tested without AChE and two without ATCL. The mean AChE activity (absorption at 405 nm, n = 4) was related to the specific inhibitor dose. The statistic program Prism (version 5.00, Graph Pad Software, San Diego, USA) was used to generate dose–response curves (4-PL fit) and to determine inhibition concentrations (ICs) for the three OTPs and related oxons. The 95% confidence intervals of the curves and the standard deviations of the mean AChE activity were also calculated. The lower boundary of the curves is fixed to 0 and the highest mean activity defines 100%.

[5] = Spiked water (ultrapure water control)
[6] = sampling point Stormwater basin
[7] = spray method, without oxidation
[8] = OTPs 100 µL, oxons 10 µL applied, peak heights, n = 3
[9] = spray method, without oxidation, OTPs 100 µL, oxons 10 µL applied, peak heights, n = 3

T1 sequence (O42275 24-633): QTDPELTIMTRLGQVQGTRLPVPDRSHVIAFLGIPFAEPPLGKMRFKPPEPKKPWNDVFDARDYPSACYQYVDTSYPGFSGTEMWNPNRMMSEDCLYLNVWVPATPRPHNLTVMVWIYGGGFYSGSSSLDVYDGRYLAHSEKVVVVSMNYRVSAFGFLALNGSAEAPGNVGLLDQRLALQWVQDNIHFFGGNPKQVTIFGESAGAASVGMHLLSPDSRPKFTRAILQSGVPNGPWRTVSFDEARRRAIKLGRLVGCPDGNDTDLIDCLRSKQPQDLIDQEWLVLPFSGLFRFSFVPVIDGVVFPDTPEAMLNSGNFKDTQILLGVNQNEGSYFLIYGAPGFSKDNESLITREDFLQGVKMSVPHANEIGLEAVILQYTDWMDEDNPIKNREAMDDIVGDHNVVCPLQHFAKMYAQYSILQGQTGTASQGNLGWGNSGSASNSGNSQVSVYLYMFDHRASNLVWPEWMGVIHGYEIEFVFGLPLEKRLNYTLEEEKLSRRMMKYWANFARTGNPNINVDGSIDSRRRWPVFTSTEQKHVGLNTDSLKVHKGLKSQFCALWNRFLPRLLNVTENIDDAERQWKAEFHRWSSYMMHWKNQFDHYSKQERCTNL

SMILES	LOD immersion method (first detected AChE-I peak with signal-to-noise ratio ≥ 3) [1] [ng/spot]	Recovery of the effect peak area related to positive control (100%) [2, 5] [%]	AChE-I effect recoveries in comparison to the positive control, range over samples [2]	Recovery of the effect peak area related to positive control (100%) ([2]; sampling point Downstream) [%]	Recovery of the effect peak area related to positive control (100%) [2, 6] [%]	Recovery of the effect peak area related to positive control (100%) ([2]; sampling point Upstream) [%]	LOD spray method (first detected AChE-I peak with signal-to-noise ratio ≥ 3) [3, 7] [ng/spot]	IC10 (10% AChE inhibition), best fit [1, 8] [ng/spot]	IC20 (20% AChE inhibition), best fit [1, 8] [ng/spot]	IC50 (50% AChE inhibition), best fit [1, 8] [ng/spot]	IC80 (80% AChE inhibition), best fit [1, 8] [ng/spot]	IC10 (10% AChE inhibition), best fit [3, 9] [ng/spot]	IC20 (20% AChE inhibition), best fit [3, 9] [ng/spot]	IC50 (50% AChE inhibition), best fit [3, 9] [ng/spot]	IC80 (80% AChE inhibition), best fit [3, 9] [ng/spot]	Effect of higher NBS concentration on AChE on the HPTLC plate ([3]; 1 mg/mL NBS tested for oxidation on HPTLC plate, application method not stated)	IC80 ([4]; read-out: IC20 (inhibition concentration for 20% AChE activity), best fit) [µg/mL]	IC20 ([4]; read-out: IC80 (inhibition concentration for 80% AChE activity), best fit) [µg/mL]
CCOP(=S)(OCC)Oc1nc(Cl)c(Cl)cc1Cl [Chlorpyrifos, chlorpyrifos]	500	63 ± 4	69–78%	69 ± 5	74 ± 5	78 ± 7	250	–	–	–	–	–	–	–	–	–	–	–
CCOC(=O)CC(SP(=S)(OC)OC)C(=O)OCC (stereo not shown) [Malathion, malathion]	250	85 ± 6	–	87 ± 12	81 ± 8	92 ± 11	250	313	536	1343	3363	212	493	2096	8910	–	–	–
CCOP(=S)(OCC)Oc1ccc([N+](=O)[O-])cc1 [Parathion, parathion]	500	74 ± 3	75–82%	79 ± 13	75 ± 9	82 ± 10	100	–	–	–	–	–	–	–	–	–	–	–
O=C1CCC(=O)N1Br [NBS, N-Bromosuccinimide]	–	–	–	–	–	–	–	–	–	–	–	–	–	–	–	lower activity or inhibition of AChE	–	–
CCOP(=O)(OCC)Oc1ccc([N+](=O)[O-])cc1 [Paraoxon, paraoxon]	–	–	–	–	–	–	–	0.60	0.99	–	5.4	0.79	1.2	–	5.9	–	0.071 (≈ 0.258 µM)	0.016 (≈ 0.0581 µM)
